Molecules are shown by their SMILES.

One assay has as its system Plasmodium falciparum. Briefly: Antiplasmodial activity against chloroquine-resistant Plasmodium falciparum K1. Type of assay: functional, organism-based.
The subject of another assay is L6. Briefly: Cytotoxicity against rat L6 cells. It is filed as cell-based.
For assay [1], the system named is Trypanosoma brucei rhodesiense. Kind of assay: Antitrypanosomal activity against Trypanosoma brucei rhodesiense. It is filed as functional, organism-based.

In general, IC50 refers to the concentration that inhibits the measured activity by half. A higher IC50 goes with lower potency. Consider `N=C(N)c1ccc(-c2cc(-c3ccc(C(=N)N)cc3Cl)on2)cc1`, for which the IC50 stood at 7.9 nM with Plasmodium falciparum, 41000 nM in the assay with L6 and 15.5 nM in assay [1].

In the case of `N=C(N)c1ccc(-c2cc(-c3ccccc3)no2)cc1`, the concentration for half-maximal inhibition (IC50) with Plasmodium falciparum is over 3300 nM; in the assay on L6 it was 19100 nM; in assay [1], 1720 nM.

Regarding `COc1cc(C(=N)N)ccc1-c1cc(-c2ccc(C(=N)N)cc2)on1`, the half-inhibitory concentration (IC50) in the assay with Plasmodium falciparum was 66.3 nM; with L6, 92600 nM; in assay [1] it was 16.4 nM.

With `C[C@@H]1CC[C@H]2[C@@H](C)C(=O)O[C@@H]3O[C@@]4(C)CC[C@@H]1[C@]32OO4` [ARTEMISININ], the IC50 with Plasmodium falciparum worked out at 6.7 nM.

Regarding `CC(C)NC(=N)c1ccc(-c2cc(-c3ccc(C(=N)NC(C)C)cc3)on2)cc1`, the results for the IC50 (with Plasmodium falciparum; with L6; in assay [1]) were 6.6 nM, over 176000 nM and 196 nM, respectively.

Regarding `N=C(N)c1cccc(-c2cc(-c3ccc(C(=N)N)cc3[N+](=O)[O-])on2)c1`, the results for the IC50 (with Plasmodium falciparum; in the assay on L6; in assay [1]) were 25.9 nM, 48000 nM and 9 nM, respectively.

For the molecule `c1cc(C2=NCCN2)cc(-c2cc(-c3ccc(C4=NCCN4)cc3)no2)c1`, the values for the IC50 (with Plasmodium falciparum; in the assay on L6; in assay [1]) were 77 nM, 30200 nM and 974 nM, respectively.

For the molecule `c1cc(-c2cc(-c3ccc(C4=NCCN4)cc3)on2)ccc1C1=NCCN1`, the half-inhibitory concentration (IC50) with Plasmodium falciparum amounted to 4.1 nM; in the assay on L6 it was 1800 nM; in assay [1], 87.2 nM.

As for `N=C(N)c1ccc(-c2ccc(-c3ccc(C(=N)N)cc3)o2)cc1` [FURAMIDINE], in the assay on L6, the IC50 amounted to 16400 nM.

`N=C(N)c1ccc(-c2cc(-c3cccc(C(=N)N)c3)no2)cc1`: the IC50 in the assay on Plasmodium falciparum was determined as 57.8 nM; with L6, 24100 nM; in assay [1], 6.3 nM.

As to `CC(C)NC(=N)c1cccc(-c2cc(-c3cccc(C(=N)NC(C)C)c3)on2)c1`, the IC50 in the assay on Plasmodium falciparum is 43.1 nM; with L6, over 180000 nM; in assay [1] it was 4980 nM.

`N=C(N)c1ccc(-c2cc(-c3ccc(C(=N)N)cc3[N+](=O)[O-])no2)cc1`: the concentration for half-maximal inhibition (IC50) in the assay on Plasmodium falciparum was 14.9 nM; with L6 it was 22200 nM; in assay [1], 32.4 nM.

With `COc1cc(C(=N)N)ccc1-c1cc(-c2ccc(C(=N)N)cc2)no1`, the IC50 in the assay on Plasmodium falciparum came to 6 nM; with L6, 122000 nM; in assay [1], 10.6 nM.

Molecule `Nc1nc(N)nc(Nc2ccc([As]3SCC(CO)S3)cc2)n1` (centres undefined) [MELARSOPROL] had an IC50 in assay [1] of 6.4 nM.

Take `N=C(N)c1cccc(-c2cc(-c3ccc(C(=N)N)cc3Cl)on2)c1`: the concentration for half-maximal inhibition (IC50) is 18.7 nM in the assay on Plasmodium falciparum, 82700 nM in the assay with L6 and 6.3 nM in assay [1].

`N=C(N)c1cccc(-c2cc(-c3ccc(C(=N)N)cc3Cl)no2)c1`: the half-maximal inhibitory concentration (IC50) was determined as 14.1 nM in the assay with Plasmodium falciparum, 87400 nM in the assay with L6 and 11.6 nM in assay [1].

Regarding `N=C(N)c1ccc(-c2cc(-c3ccc(C(=N)N)cc3Cl)no2)cc1`, the IC50 came out at 55.5 nM in the assay with Plasmodium falciparum, 5700 nM in the assay on L6 and 23.2 nM in assay [1].

For the molecule `c1cc(C2=NCCN2)cc(-c2cc(-c3cccc(C4=NCCN4)c3)on2)c1`, the IC50 was 227 nM with Plasmodium falciparum, 26200 nM in the assay with L6 and 18500 nM in assay [1].

Turning to `COc1cc(C(=N)N)ccc1-c1cc(-c2cccc(C(=N)N)c2)no1`, the IC50 in the assay with Plasmodium falciparum worked out at 3.5 nM; in the assay with L6, 177000 nM; in assay [1], 6.5 nM.

As to `N=C(N)c1ccc(-c2cc(-c3ccccc3)on2)cc1`, the half-inhibitory concentration (IC50) was over 3300 nM in the assay on Plasmodium falciparum, 18500 nM in the assay with L6 and 1120 nM in assay [1].

Turning to `N=C(N)c1ccc(-c2cc(-c3ccc(C(=N)N)cc3[N+](=O)[O-])on2)cc1`, the values for the IC50 (with Plasmodium falciparum; in the assay with L6; in assay [1]) were 14.9 nM, 15800 nM and 13.9 nM, respectively.

For the molecule `CC(C)NC(=N)c1ccc(-c2cc(-c3cccc(C(=N)NC(C)C)c3)no2)cc1`, the concentration for half-maximal inhibition (IC50) with Plasmodium falciparum was 10.6 nM; in the assay on L6, over 187000 nM; in assay [1], 488 nM.

As to `N=C(N)c1cccc(-c2cc(-c3ccc(C(=N)N)cc3[N+](=O)[O-])no2)c1`, the IC50 with Plasmodium falciparum was 30.4 nM; in the assay with L6 it was over 206000 nM; in assay [1] it was 19.4 nM.

Turning to `COc1cc(C(=N)N)ccc1-c1cc(-c2ccc(C(=N)N)cc2OC)on1`, the figures for the concentration for half-maximal inhibition (IC50) (in the assay with Plasmodium falciparum; in the assay on L6; in assay [1]) were 6.1 nM, 84800 nM and 13 nM, respectively.

Take `COc1cc(C(=N)N)ccc1-c1cc(-c2cccc(C(=N)N)c2)on1`: the values for the IC50 (with Plasmodium falciparum; in the assay on L6; in assay [1]) were 8.9 nM, 136000 nM and 5.9 nM, respectively.

As for `N=C(N)c1cccc(-c2cc(-c3cccc(C(=N)N)c3)on2)c1`, the values for the half-inhibitory concentration (IC50) (in the assay on Plasmodium falciparum; in the assay with L6; in assay [1]) were 9.2 nM, 153000 nM and 29 nM, respectively.

Consider `N=C(N)c1ccc(-c2cc(-c3ccc(C(=N)N)cc3)on2)cc1`, for which the IC50 is 22.6 nM with Plasmodium falciparum, 2100 nM with L6 and 5.1 nM in assay [1].

Take `c1cc(C2=NCCN2)cc(-c2cc(-c3ccc(C4=NCCN4)cc3)on2)c1`: the values for the IC50 (in the assay on Plasmodium falciparum; in the assay on L6; in assay [1]) were 51.2 nM, 65000 nM and 1550 nM, respectively.

Regarding `CC(C)NC(=N)c1ccc(-c2cc(-c3cccc(C(=N)NC(C)C)c3)on2)cc1`, the IC50 in the assay with Plasmodium falciparum was 34.7 nM; in the assay with L6, over 186000 nM; in assay [1] it was 316 nM.

For the molecule `N=C(N)c1ccc(-c2cc(-c3cccc(C(=N)N)c3)on2)cc1`, the values for the 50% inhibitory concentration (IC50) (in the assay with Plasmodium falciparum; with L6; in assay [1]) were 2.5 nM, 31200 nM and 3.5 nM, respectively.
